Laboratory results taken from US7585892B2, “Compound for promoting the growth of neural cells” (Naturewise Biotech & Medicals Corporation, priority 2006, dated 2009).

How the values were obtained:
Type in all cases: cell-based, Wistar rat
cortical neurons [1] = test: Survival of cortical neurons, MTT assay (Example 2); conditions: 300 cells/mm^2, 5 days, vs DMSO control
Experimental: (§1) Cells obtained from the suspension prepared in Example 1 were cultivated in 6-well plates coated with 30 μg/ml of poly-D-lysine (Sigma) at 300 cells/mm^2 and cultivated at 37° C., 5% CO2 and 95% relative humidity. The growth media contained compounds A, B, D, E, F, G, and H respectively and the growth media added with 5 μl of DMSO were used as control. The differentiated cells after cultivation were categorically called cortical neurons.
The experiments were repeated three times. After cultivating for 5 days, live cells were counted by a known cell-counting method (MTT assay) and the absorbance was read at 540 nm.

cortical neurons [2] = test: Neurite length of cortical neurons at low cellular density (Example 4); conditions: 38 cells/mm^2, 5 days, control cells all dead
Experimental: as §1, with “cultivated at a density of 38 cells/mm^2” for “cultivated”, “μg/ml” for “μg/ml of”, “(Sigma)” for “(Sigma) at 300 cells/mm^2 and cultivated”, “D,” for “D, E, F, G,”, “G” for “H”, “are” for “after cultivation were”
The experiments were repeated three times. After cultivating for 5 days, the cells were observed under microscope and the length of the neurites was measured.

neural stem cells [3] = test: Differentiation of NSCs from neurospheres, MAP-2 immunofluorescent staining (Example 5); conditions: added in the beginning, with or without adding again at seeding; 3 days + 3 days
Experimental: In the beginning of cultivating NSCs, either compound A or EGF was added into the growth media. The cells were cultivated for 3 days and the cells would aggregate to form neurospheres. One hundred μl of the cell suspension was aspirated and diluted to 1 ml. 250 μl of the supernatant which contained neurospheres was aspirated and placed on the cover slides coated with 30 μg/ml poly-D-lysine (Sigma). After all the cells had been attached onto the slides, the media was removed and replaced with the cultivating media containing compound A (FIG. 5A), EGF (FIG. 5C), or none of the growth factors (FIG. 5B, compound A in the beginning; FIG. 5D, EGF in the beginning). The cells were cultivated for another 3 days at the same condition as described above so that the cells would differentiate into cortical neurons.
The cells were stained with a known immunofluorescent staining method. To stain the neurons, a neurological marker of MAP-2 (microtubule-associated protein 2) antibody was used as the primary antibody and a fluorescent material-labeled mouse immunoglobulin that identified primary antibody was used as the second antibody. After the primary antibody that had been bound onto the neurons was identified and bound by the secondary antibody, the neurons emit fluorescent light under the excitation of a specific light source.

neural stem cells [4] = test: Continuous cultivation of NSCs for 30 days, cell morphology (Example 7)
Experimental: As in Example 1, the NSCs were cultivated continuously and the growth media were replaced every seven days. DMSO-added growth media were used as the negative control. After 30 days, 100 μl of the cell suspension was aspirated and diluted to 1 ml. 250 μl of the supernatant was aspirated and placed on the slides coated with 30 μg/ml poly-D-lysine (Sigma). The cell morphology was observed thereafter under a microscope.

neural stem cells [5] = test: Differentiation of NSCs with compound D and EGF, immunofluorescent staining (Example 6); conditions: compound D and EGF in the beginning, only the named substance at seeding
Experimental: The procedures were similar to Example 5. However, in the beginning of cultivating the neural stem cells, both compound D and EGF were added into the media. After all the cells had been attached onto the slides, the media were removed and replaced with the cultivating media containing compound D (FIG. 6B), EGF (FIG. 6C), none of the growth factors (FIG. 6D), or both compound D and EGF (FIG. 6A). The cells were cultivated for another 3 days and the cell morphology was observed thereafter by using immunofluorescent staining technique.

Row | SMILES | live cells, MTT absorbance at 540 nm (cortical neurons [1]) | growth of neurons and neurites under microscope (cortical neurons [2]; 2.5 μM) | cell type after differentiation (MAP-2 staining) (neural stem cells [3]) | sphere formation of neural stem cells after 30 days (neural stem cells [4]; media replaced every seven days, control almost no surviving cells) | differentiation after 30 days culture plus another 3 days (immunofluorescence) (neural stem cells [4]; neurospheres grown 30 days with compound) | growth of neurons and neurites under microscope (cortical neurons [2]; 5 μM) | cell type after differentiation (neural stem cells [5])
1 | C/C(=C\Cc1c([C@@H]2CC(=O)c3c(O)cc(O)cc3O2)ccc(O)c1O)CCCC(C)(C)O [compound A] | best results | continuous growth of the neurons and the extension of the neurites can be observed | the cells will differentiate into neurons | can maintain the characteristics of forming spherical clusters | differentiating normally into neurons with the continuous outgrowth of neurites | – | –
2 | C/C(=C\Cc1cc([C@@H]2CC(=O)c3c(O)cc(O)cc3O2)cc(O)c1O)CCCC(C)(C)O [compound B] | – | – | – | – | – | continuous growth of the neurons and the extension of the neurites can be observed | –
3 | CC(C)=CCC/C(C)=C/Cc1c([C@@H]2CC(=O)c3c(O)cc(O)cc3O2)ccc(O)c1O [compound D] | best results | – | – | – | – | continuous growth of the neurons and the extension of the neurites can be observed | the cells will differentiate into neurons
4 | CC(C)=CCC/C(C)=C/Cc1c(O)cc2c(c1O)C(=O)C[C@@H](c1ccc(O)c(O)c1CC=C(C)C)O2 [compound G] | best results | – | – | – | – | continuous growth of the neurons and the extension of the neurites can be observed | –
